This note sets out measurements from patent US20240024216A1, “METHODS AND MATERIALS FOR TREATING HAIR LOSS” (The Penn State Research Foundation, priority 2021, published 2024).

In this assay the test system is human foreskin primary keratinocytes. The assay is described as follows: Keratinocyte scratch assay with 4-AP, NGF and NGF-antibody. It counts as cell-based. To be noted: at 12 hours. The protocol: Keratinocytes (7×10^4 cells/well) with KC medium were seeded on collagen-I pre-coated 96-well ImageLock microplate for 6 hours. For the drug treatment cells were pretreated with 4-AP prior to coating for 16-18 hours. Next, the wound scratch was created using IncuCyte automated system. After scratches the cells washed with PBS and the respective cells medium was added with individual 1 mM of 4-AP and 200 ng/ml of NGF (MyBioSource, Inc., Catlog No. MBS7114974) in keratinocytes medium and combination of 1 mM of 4-AP & 200 ng/mL NGF with or without 10 μg/ml of NGF-antibody (ThermoFisher Scientific, Catlog No. MA5-32067). The plate was incubated in Incucyte automated imaging system, wound healing and cells migration imaged for every hour until 24 hour and analyzed for percent of closure as described above procedure.

As for “NGF: nerve growth factor (NGF), MyBioSource, used at 200 ng/ml in keratinocyte scratch assay”, where the note is “56% in control cultures, 1 mM 4-AP, 200 ng/ml NGF”, the scratch closure is recorded as 75%. The “scratch closure with NGF-neutralizing antibody” value (plus 10 μg/ml NGF-antibody) stood at 67%.
